The subject of data set [1] is Sporothrix schenkii B62482. The experiment in a line: Antifungal activity in vitro (resazurin susceptibility screen), Inf. A. The conditions noted are these: Sporothrix, B62482, Sporothrix schenkii B62482; 27 °C, 4 days, resa time 24 hours; highest in-test concentration 64 μM; read-out: Inf. A pIC50 (converted). The class given is cell-based. The procedure, abridged:
(§1)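 Susceptibility was tested on pre-made plates bearing spotted serial compound dilutions (stored at 4 °C in darkness, maximum 2 weeks). Cryopreserved fungal stocks, diluted 1/1000 right before use, supplied 10^3 cfu per well, with drug-free and medium-only wells as controls.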
Background: The colour change of resazurin is a common sign of viable cells or microbes.

A further data set relates to Microsporum canis B68128. The experiment in a line: Antifungal activity in vitro (resazurin susceptibility screen), Inf. B. It is filed as cell-based. Conditions: Microsporum canis, B68128, Microsporum canis B68128; 27 °C, 9 days, resa time 24 hours; read-out: Inf. B pIC50 (converted). The procedure, abridged:
(§2)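 Each well was inoculated with 10^3 cfu of fungus onto dried, pre-spotted compound serial dilutions in RPMI-MOPS medium, with fungal growth read by resazurin. Growth was referenced to drug-free culture (100%) and medium-only (0%) controls on each plate.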

Data set [2] relates to Trichophyton rubrum B68183. As to the kind of experiment: Antifungal activity in vitro (resazurin susceptibility screen), Inf. C. It is filed as cell-based. Conditions: Trichophyton rubrum B68183; 27 °C, 7 days, resa time 24 hours; read-out: Inf. C pIC50 (converted). The procedure, abridged: as §1
For data set [3], the system named is Candida parapsilosis B66126. The experiment in a line: Antifungal activity in vitro (resazurin susceptibility screen), Inf. D. It is filed as cell-based. Conditions: Lodderomyces parapsilosis; Candida parapsilosis B66126; 37 °C, 24 hours, resa time 4 hours; read-out: Inf. D pIC50 (converted). The procedure, abridged: as §2
In data set [4] the test system is Aspergillus fumigatus B42928. As to the kind of experiment: Antifungal activity in vitro (resazurin susceptibility screen), Inf. E. Conditions: Aspergillus fumigatus B42928; 27 °C, 48 hours, resa time 17 hours; read-out: Inf. E pIC50 (converted). It is filed as cell-based. The procedure, abridged: as §1
The subject of data set [5] is Cryptococcus neoformans B66663. The experiment in a line: Antifungal activity in vitro (resazurin susceptibility screen), Inf. F. The class given is cell-based. The conditions noted are these: Cryptococcus neoformans, B66663, Cryptococcus neoformans B66663; 37 °C, 24 hours, resa time 4 hours; read-out: Inf. F pIC50 (converted). The procedure, abridged:
as §1

For data set [6], the system named is Trichophyton mentagrophytes B70554. The experiment in a line: Antifungal activity in vitro (resazurin susceptibility screen), Inf. G. It is filed as cell-based. The conditions noted are these: Trichophyton mentagrophytes, B70554, Trichophyton mentagrophytes B70554; 27 °C, 7 days, resa time 24 hours; read-out: Inf. G pIC50 (converted). Summed up:
as §2

In data set [7] the test system is Scedosporium apiospermum IHEM3817. The experiment in a line: Antifungal activity in vitro (resazurin susceptibility screen), Inf. H. It is filed as cell-based. Conditions: 37 °C, 48 hours, resa time 17 hours, read-out: Inf. H pIC50 (converted). Here is the method:
(§3) The standard susceptibility screen was performed in 96-well plates (U-bottom, Greiner Bio-One). […] These serial dilutions (10 n1) were then spotted onto test-plates that could be stored in the dark at 4° C. for a maximum period of 2 weeks. […] The different fungal species/isolates (Table 3a) were cryopreserved and 1/1000 diluted in medium just prior to use. A standard inoculum of 200 μl containing 10^3 colony-forming unit (cfu) was then added to each well. A positive control (100% growth=fungal culture without antifungal) and a negative control (0% growth ═RPMI-MOPS medium) were included on each plate. […] [table]

Data set [8] concerns Scedosporium prolificans IHEM21157. As to the kind of experiment: Antifungal activity in vitro (resazurin susceptibility screen), Inf. I. It is filed as cell-based. Conditions: Lomentospora prolificans, 37 °C, 48 hours, resa time 17 hours, read-out: Inf. I pIC50 (converted). Here is the method:
as §3

The test system of a further data set is Rhizopus oryzae IHEM5223. The experiment in a line: Antifungal activity in vitro (resazurin susceptibility screen), Inf. J. The class given is cell-based. The conditions noted are these: Rhizopus arrhizus, 37 °C, 24 hours, resa time 6 hours, read-out: Inf. J pIC50 (converted). Here is the method:
as §3

The test system of data set [9] is Rhizomucor miehei IHEM13391. The experiment in a line: Antifungal activity in vitro (resazurin susceptibility screen), Inf. K. It is filed as cell-based. Conditions: 37 °C, 48 hours, resa time 17 hours, read-out: Inf. K pIC50 (converted). The procedure: as §3
The subject of data set [10] is Mucor circinelloides IHEM21105. The experiment in a line: Antifungal activity in vitro (resazurin susceptibility screen), Inf. L. It is filed as cell-based. Conditions: 27 °C, 48 hours, resa time 17 hours, read-out: Inf. L pIC50 (converted). Here is the method: as §3
A short description of data set [11]: Liver metabolic stability assay, hLM. Conditions: human liver microsomes, 1 mg protein/ml, 5 μM test compound, 15 min, 37 °C. The class given is in vitro ADME, human. A general note: Microsomes from liver hold many membrane-bound enzymes, among them those of drug oxidation.
A short description of data set [12]: Liver metabolic stability assay, gpLM. Conditions: guinea pig microsomes, 1 mg protein/ml, 5 μM test compound, 15 min, 37 °C. The class given is in vitro ADME, guinea pig.
The target in a further data set is T1, CYP1A2 (Homo sapiens, UniProt P05177).
T1 sequence (P05177 1-516): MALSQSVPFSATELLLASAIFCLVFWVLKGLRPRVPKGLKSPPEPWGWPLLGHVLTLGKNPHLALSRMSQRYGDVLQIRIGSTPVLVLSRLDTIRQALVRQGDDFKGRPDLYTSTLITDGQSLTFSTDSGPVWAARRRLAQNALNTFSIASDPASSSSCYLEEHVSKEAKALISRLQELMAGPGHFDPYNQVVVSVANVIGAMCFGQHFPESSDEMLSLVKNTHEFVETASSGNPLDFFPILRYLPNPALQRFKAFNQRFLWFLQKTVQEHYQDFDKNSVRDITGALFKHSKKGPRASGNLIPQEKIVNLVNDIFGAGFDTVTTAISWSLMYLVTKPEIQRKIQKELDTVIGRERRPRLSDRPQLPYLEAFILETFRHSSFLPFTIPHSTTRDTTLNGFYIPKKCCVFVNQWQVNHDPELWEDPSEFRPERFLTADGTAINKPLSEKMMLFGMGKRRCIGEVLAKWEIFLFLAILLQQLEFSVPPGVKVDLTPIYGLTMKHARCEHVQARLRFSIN
As to the kind of experiment: Human liver microsomal cytochrome P450 inhibition assay, Protocol B. Conditions: liver microsomes, pH 7.4, probe resorufin, at 30 μM. It is filed as in vitro ADME. The procedure:
(§4) The samples are centrifuged for 10 min at 4° C. at 4000 rpm and the supernatant is analyzed. Analysis for CYP1A2 with resorufin was performed by fluorescence while the CY2D6 inhibition potential was assessed using LC-MS detection.

A further data set has as its target CYP2D6 (Homo sapiens, UniProt P10635). The data set is described as above. The class given is in vitro ADME. Conditions: pH 7.4; at 30 μM; solvent condition B (0.30% DMSO+0.68% acetonitrile); human liver microsomes; probe dextromethorphan. Here is the method: as §4

Chain of CYP2D6 (P10635 whole entry): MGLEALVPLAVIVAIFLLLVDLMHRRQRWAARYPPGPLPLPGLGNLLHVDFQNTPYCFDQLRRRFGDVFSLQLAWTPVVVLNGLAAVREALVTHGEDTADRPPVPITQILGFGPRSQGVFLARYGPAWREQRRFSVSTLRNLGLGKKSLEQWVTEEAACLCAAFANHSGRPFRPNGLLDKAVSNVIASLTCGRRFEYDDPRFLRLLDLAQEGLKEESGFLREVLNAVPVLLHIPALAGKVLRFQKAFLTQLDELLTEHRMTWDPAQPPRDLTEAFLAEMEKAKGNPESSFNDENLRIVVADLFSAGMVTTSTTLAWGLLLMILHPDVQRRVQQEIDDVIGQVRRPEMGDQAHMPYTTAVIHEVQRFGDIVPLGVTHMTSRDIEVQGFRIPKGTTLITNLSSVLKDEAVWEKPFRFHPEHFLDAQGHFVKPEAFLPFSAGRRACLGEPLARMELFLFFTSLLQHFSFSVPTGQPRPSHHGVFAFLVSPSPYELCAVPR

On to `CC(=O)c1ccc(C2=NCc3ccc(Cl)cc3-n3cccc32)cc1` [Compound 18, 1-[4-(9-chloro-6H-pyrrolo[1,2-a][1,4]benzodiazepin-4-yl)phenyl]-ethanone], for which the melting point lay in the range of 114.4 to 115.7 °C. For the same molecule, in data set [1], the IC50 was 7.94 µM. Also, the IC50 in the data set with Microsporum canis B68128 was 2 µM. In addition, the IC50 in [2] is 0.316 µM. The IC50 in data set [3] is 63.1 µM. In data set [4], the IC50 was 0.501 µM. In [5], the IC50 is 1.58 µM. In addition, the IC50 in data set [6] is 1 µM. Also, the IC50 in data set [7] is 39.8 µM. In data set [8], the IC50 is 12.6 µM. In addition, in the data set with Rhizopus oryzae IHEM5223, the IC50 was above 63.1 µM. Also, in data set [9], the IC50 is above 63.1 µM. Moreover, the IC50 in data set [10] is above 63.1 µM. For the same molecule, the “%-compound metabolised_Met_hLM” value in data set [11] stood at 17%. Further, in data set [12], the “%-compound metabolised Met_gpLM” value is reported as 36%. Further, the inhibition at 10 min, 30 µM at CYP1A2 (solvent condition A (0.15% DMSO+[…] acetonitrile)) fell in the range of 20 to 25%. The same molecule gave an inhibition at 10 min, 30 µM against CYP1A2 (solvent condition B (0.30% DMSO+0.68% acetonitrile)) of 25 to 35%. The molecule also showed an inhibition at 10 min, 30 µM on CYP2D6 of 40 to 45%.

The inhibition is the percentage by which the read-out fell short of the control. Low values mean a response near the control, high ones a response far below the control. What is called melting point is the temperature, or range, at which the solid turns liquid.

For the origin of these results see patent US9040523B2, “Antifungal 5,6-dihydro-4H-pyrrolo[1,2-α][1,4]-benzodiazepines and 6H-pyrrolo[1,2-α][1,4]benzodiazepines substituted with benzene derivatives” (JANSSEN PHARMACEUTICA NV, priority 2010, dated 2015).
